This experiment in a line: Corrosion inhibition efficiency by electrochemical impedance spectroscopy (EIS), three-electrode cell. To be noted: 40° C., 3 hours. On the procedure:
Evaluation Using Electrochemical Impedance Spectroscopy (EIS)
The evaluation of corrosion inhibiting properties of the individual structures and binary compositions was carried out in a conventional electrochemical cell (E) with a three electrode arrangement as the one shown in FIG. 1. This cell allows maintaining stirring and constant temperature during development of measurement.
The inhibiting formulations to be evaluated are added in the desired concentration in the test solution (D), whereas a stirring of 2000 rpm and a temperature of 40° C. are maintained. […] The system is maintained under stirring and constant temperature for 3 hours.
After 3 hours, the electrochemical impedance spectrum is obtained in a range of 10 kHz and 10 mHz frequency and the resistance related to corrosion and together with that obtained in an identical experiment but only with the test solution was obtained from this spectrum; the corrosion inhibition efficiency was calculated.

Setting [1] is: test water SP1, concentration 50 mg/L.
[2] abbreviates: test water SP1, concentration 500 mg/L.
The mark [3] stands for this setting: test water SP1, concentration 2500 mg/L.

Inhibition efficiency % data for four compounds are collected here from US10676829B2, “Corrosion inhibition composition for pipelines, process of elaboration and synthesis” (INSTITUTO MEXICANO DEL PETROLEO, priority 2013, dated 2020).

Compound `CCCCCCNCn1nnc2ccccc21` [BZC6, N-(1H-benzotriazole-1-methyl)-hexane-1-amine] came in with an Inhibition efficiency % under setting [1] of 18.2%, an Inhibition efficiency % under setting [2] of 35.3% and an Inhibition efficiency % under setting [3] of 73.7%.
In the same order, the values of `CCCCCCCCCCCCN=Cc1c[nH]cn1` [IMC12, N-[1H-imidazole-(4-methylidene)]-dodecane-1-amine] are 23.1%, 80.9% and 95.4%.
Taken in the same sequence, the figures for `CCCCCCCCCCCCCCN=Cc1c[nH]cn1` [IMC14, N-[1H-imidazole-(4-methylidene)]-tetradecane-1-amine] were 19.8%, 78.9% and 98.0%.
`CCCCn1cc[n+](C)c1.[Br-]` [MIMC4, 1-butyl-3-methylimidazolium bromide]: the Inhibition efficiency % reads like this: under setting [1], 15.2%; under setting [2], 61.9%; under setting [3], 76.0%.
